Experimental data taken from US7012041B2, “Phenylpyridazinones” (Bayer AG, priority 1995, dated 2006).

Key:
Type in all cases: in vivo
Sunflower = test: Pre-emergence test/greenhouse; conditions: after three weeks
Description: (§1) • Solvent: 5 parts by weight of acetone • Emulsifier: 1 part by weight of alkylaryl polyglycol ether
(§2) To produce a suitable preparation of active compound, 1 part by weight of active compound is mixed with the stated amount of solvent, the stated amount of emulsifier is added and the concentrate is diluted with water to the desired concentration.
(§3) Seeds of the test plants are sown in normal soil. After 24 hours, the soil is watered or sprayed with the preparation of the active compound. It is advantageous to keep the amount of water per unit area constant. The concentration of the active compound in the preparation is immaterial, only the amount of active compound applied per unit area matters.
(§4) After three weeks, the degree of damage to the plants is rated in % damage by comparison with the development of the untreated control.
(§5) The figures denote: • 0%=no effect (like untreated control) • 100%=total destruction

Abutilon = test: Pre-emergence test/greenhouse; conditions: for % damage Abutilon: after three weeks; for activity against Abutilon (% damage): application rate between 125 and 500 g/ha, span over the named compounds
Description: as §1, §2, §3, §4, §5

Maize = test: Pre-emergence test/greenhouse; conditions: after three weeks
Description: as §1, §2, §3, §4, §5

Chenopodium [1] = test: Pre-emergence test/greenhouse; conditions: after three weeks
Description: as §1, §2, §3, §4, §5

Solanum = test: Pre-emergence test/greenhouse; conditions: after three weeks
Description: as §1, §2, §3, §4, §5

Galinsoga = test: Pre-emergence test/greenhouse; conditions: after three weeks
Description: as §1, §2, §3, §4, §5

Amaranthus = test: Post-emergence test/greenhouse; conditions: after three weeks
Description: as §1, §2
(§6) Test plants which have a height of 5–15 cm are sprayed with the preparation of the active compound in such a way as to apply the particular amounts of active compound desired per unit area.
as §4, §5

Datura = test: Post-emergence test/greenhouse; conditions: after three weeks
Description: as §1, §2, §6, §4, §5

Polygonum = test: Post-emergence test/greenhouse; conditions: after three weeks
Description: as §1, §2, §6, §4, §5

Wheat = test: Post-emergence test/greenhouse; conditions: after three weeks
Description: as §1, §2, §6, §4, §5

Veronica = test: Post-emergence test/greenhouse; conditions: after three weeks
Description: as §1, §2, §6, §4, §5

Chenopodium [2] = test: Post-emergence test/greenhouse; conditions: after three weeks
Description: as §1, §2, §6, §4, §5

SMILES	% damage Sunflower (Sunflower; 500 g ai/ha) [%]	% damage Abutilon (Abutilon; 500 g ai/ha) [%]	% damage Maize (Maize; 500 g ai/ha) [%]	% damage Chenopodium (Chenopodium [1]; 500 g ai/ha) [%]	% damage Solanum (Solanum; 500 g ai/ha) [%]	% damage Galinsoga (Galinsoga; 500 g ai/ha) [%]	% damage Galinsoga (Galinsoga; 250 g ai/ha) [%]	% damage Abutilon (Abutilon; 250 g ai/ha) [%]	activity against Abutilon (% damage) (Abutilon) [%]	% damage Maize (Maize; 250 g ai/ha) [%]	% damage Solanum (Solanum; 250 g ai/ha) [%]	also measured
Nc1cnn(-c2ccccc2)c(=O)c1Cl [(A), 5-Amino-4-chloro-2-phenyl-pyridazin-3-one, reference compound]	100	20	0	50	40							
Cc1cnn(-c2ccccc2)c(=O)c1Br [(B), 4-Bromo-5-methyl-2-phenyl-pyridazin-3-one, reference compound]	0	0	0	50	50	30						% damage Amaranthus (Amaranthus; 250 g ai/ha): 30%; % damage Datura (Datura; 250 g ai/ha): 80%; % damage Polygonum (Polygonum; 250 g ai/ha): 50%; % damage Wheat (Wheat; 250 g ai/ha): 30%; % damage Veronica (Veronica; 250 g ai/ha): 40%; % damage Chenopodium (Chenopodium [2]; 250 g ai/ha): 50%
Cc1cnn(-c2cc(F)c(C#N)cc2F)c(=O)c1 [Example 3, 2-(2,5-difluoro-4-cyano-phenyl)-5-methyl-pyridazin-3-one]							100	100	100	0	90	% damage Sunflower (Sunflower; 250 g ai/ha): 0%
C#CCOc1cc(-n2nc(C)ccc2=O)c(F)cc1C#N [Example 7, 2-(2-fluoro-4-cyano-5-propargyloxy-phenyl)-6-methyl-pyridazin-3-one]							95	100	100	0	100	% damage Sunflower (Sunflower; 250 g ai/ha): 20%; % damage Chenopodium (Chenopodium [1]; 250 g ai/ha): 100%
C#CC(C)Oc1cc(-n2ncc(C)cc2=O)c(F)cc1C#N (stereo not drawn) [Example 8, 2-(2-fluoro-4-cyano-5-but-1-ine-3-yl-oxy-phenyl)-5-methyl-pyridazin-3-one]							100	100	100	0	100	% damage Sunflower (Sunflower; 250 g ai/ha): 0%; % damage Chenopodium (Chenopodium [1]; 250 g ai/ha): 100%; % damage Amaranthus (Amaranthus; 60 g ai/ha): 90%; % damage Datura (Datura; 60 g ai/ha): 100%; % damage Polygonum (Polygonum; 60 g ai/ha): 100%; % damage Wheat (Wheat; 60 g ai/ha): 0%; % damage Veronica (Veronica; 60 g ai/ha): 100%; % damage Chenopodium (Chenopodium [2]; 60 g ai/ha): 95%
CCS(=O)(=O)Nc1cc(-n2nc(C)ccc2=O)c(F)cc1C#N [Example 15]	0	100	0	100	95	80			100			% damage Amaranthus (Amaranthus; 250 g ai/ha): 100%; % damage Datura (Datura; 250 g ai/ha): 90%; % damage Polygonum (Polygonum; 250 g ai/ha): 80%; % damage Wheat (Wheat; 250 g ai/ha): 5%; % damage Veronica (Veronica; 250 g ai/ha): 95%; % damage Chenopodium (Chenopodium [2]; 250 g ai/ha): 95%
C#CC(C)Oc1cc(-n2nc(C)ccc2=O)c(F)cc1C#N (stereo not drawn) [Example 16]	20	100	10	100	100	100			100			% damage Amaranthus (Amaranthus; 60 g ai/ha): 100%; % damage Datura (Datura; 60 g ai/ha): 100%; % damage Polygonum (Polygonum; 60 g ai/ha): 95%; % damage Wheat (Wheat; 60 g ai/ha): 5%; % damage Veronica (Veronica; 60 g ai/ha): 90%; % damage Chenopodium (Chenopodium [2]; 60 g ai/ha): 95%
CCS(=O)(=O)Nc1cc(-n2ncc(NC)c(Cl)c2=O)c(F)cc1C#N [Example 25]		100	0	90	60	100			100			
C#CC(CC)Oc1cc(-n2nc(C)ccc2=O)c(F)cc1C#N (stereo not drawn) [Example 29]	0	100	0	100	100	100			100			
CCS(=O)(=O)Nc1cc(-n2ncc(C)cc2=O)c(F)cc1C#N [Example 31]							80	100	100	0	100	% damage Sunflower (Sunflower; 250 g ai/ha): 0%; % damage Amaranthus (Amaranthus; 60 g ai/ha): 100%; % damage Datura (Datura; 60 g ai/ha): 100%; % damage Polygonum (Polygonum; 60 g ai/ha): 90%; % damage Wheat (Wheat; 60 g ai/ha): 5%; % damage Veronica (Veronica; 60 g ai/ha): 90%; % damage Chenopodium (Chenopodium [2]; 60 g ai/ha): 80%
CCS(=O)(=O)Nc1cc(-n2ncc(C)cc2=O)c(Cl)cc1Cl [Example 34]	20	100	0	100	90	100			100			
C#CC(CC)Oc1cc(-n2ncc(C)cc2=O)c(F)cc1C#N (stereo not drawn) [Example 35]							100	100	100	0	100	% damage Chenopodium (Chenopodium [1]; 250 g ai/ha): 100%; % damage Amaranthus (Amaranthus; 60 g ai/ha): 95%; % damage Datura (Datura; 60 g ai/ha): 100%; % damage Polygonum (Polygonum; 60 g ai/ha): 90%; % damage Wheat (Wheat; 60 g ai/ha): 20%; % damage Veronica (Veronica; 60 g ai/ha): 95%; % damage Chenopodium (Chenopodium [2]; 60 g ai/ha): 95%
Cc1cnn(-c2cc(OC(C)C)c(C#N)cc2F)c(=O)c1 [Example 36]							90	100	100	10	100	% damage Chenopodium (Chenopodium [1]; 250 g ai/ha): 100%
C#CCOc1cc(-n2ncc(C)cc2=O)c(F)cc1C#N [Example 37]												% damage Amaranthus (Amaranthus; 125 g ai/ha): 100%; % damage Datura (Datura; 125 g ai/ha): 100%; % damage Polygonum (Polygonum; 125 g ai/ha): 100%; % damage Wheat (Wheat; 125 g ai/ha): 20%; % damage Veronica (Veronica; 125 g ai/ha): 100%; % damage Chenopodium (Chenopodium [2]; 125 g ai/ha): 100%
C#CCOc1cc(-n2ncc(N(C)C)c(Cl)c2=O)c(F)cc1C#N [Example 41]									100			% damage Galinsoga (Galinsoga; 125 g ai/ha): 100%; % damage Sunflower (Sunflower; 125 g ai/ha): 0%; % damage Abutilon (Abutilon; 125 g ai/ha): 100%; % damage Maize (Maize; 125 g ai/ha): 10%; % damage Chenopodium (Chenopodium [1]; 125 g ai/ha): 100%; % damage Solanum (Solanum; 125 g ai/ha): 100%; % damage Amaranthus (Amaranthus; 250 g ai/ha): 60%; % damage Datura (Datura; 250 g ai/ha): 100%; % damage Polygonum (Polygonum; 250 g ai/ha): 100%; % damage Wheat (Wheat; 250 g ai/ha): 20%; % damage Veronica (Veronica; 250 g ai/ha): 100%; % damage Chenopodium (Chenopodium [2]; 250 g ai/ha): 90%
